Assay results: PMC7467771, “Lipophilic Arginine Esters: The Gateway to Preservatives without Side Effects” (Molecular Pharmaceutics, 2020)

Test system: Caco-2 cell membrane
Experiment: fluorescence anisotropy (DPH), membrane fluidity
Assay type: cell-based
Conditions: DPH-labeled Caco-2 cells
Method: To evaluate membrane fluidity by fluorescence spectroscopy, a method described by Aricha et al. was adapted.[17] Caco-2 cells were labeled with fluorescent probe DPH (1,6-diphenyl-1,3,5-hexatriene). For this, a 1 mM solution of DPH was prepared in acetone. A Caco-2 cell monolayer in a 15 mL cell flask after washing with sterile PBS was trypsinized and resuspended in 10 mM HBS (pH 7.4) at a concentration of 2 × 10^5 cells mL^–1. Then a 1 mM DPH solution (10 μL) was added to a Caco-2 cell suspension (5 mL) and kept for incubation at 37 °C in the dark. After 1 h, cells were centrifuged at 588 rpm for 3 min, and solvent was removed to get rid of the free probe. Cells were resuspended in the same volume of HBS. Samples of Arg-surfactants were prepared in HBS in concentrations of 2000, 1000, and 500 μg mL^–1. Then each sample solution was mixed with a DPH-labeled cell suspension in equal volumes and incubated at room temperature in the dark. HBS mixed in an equal volume with the DPH-labeled cell suspension was used as a control. At specific time points, fluorescence polarization data were obtained using an excitation wavelength of 350 nm and an emission wavelength of 420 nm, and anisotropy was calculated using the following equation: [drawing 5] where I∥ and I⊥ are the fluorescence intensities parallel and perpendicular to the direction of the excitation light beam.

Structure (SMILES)	changes in anisotropy (< 1000 μg mL^–1)	decrease in the anisotropy value as compared to the control (within 2 h) [%]
CCCCCCCCCCCCC(CCCCCCCCCC)COC(=O)[C@@H](N)CCCNC(=N)N.O=C(O)C(F)(F)F (some centres unmarked) [Arg-DT, 2-Decyltetradecyl Argininate Trifluoroacetate]	not significant	–
CCCCCCCCC=CCCCCCCCCOC(=O)[C@@H](N)CCCNC(=N)N.O=C(O)C(F)(F)F [Arg-OL, Octadec-9-en-1-yl Argininate Trifluoroacetate]	–	> 30
